Experimental data taken from patent US20230217975A1, “PERFUME COMPOSITION” (AJINOMOTO CO., INC., priority 2020, published 2023).

Key:
panel of 4 experts [1] = assay: Sensory evaluation of strength of mouth-coating feel in mayonnaise (Examples 1, 5, 6); type: in vivo; details: for strength of mouth-coating feel, single component compound (I) / strength of mouth-coating feel, two components compound (I) and furfural / strength of mouth-coating feel, two components compound (I) and β-caryophyllene oxide / strength of mouth-coating feel, three components compound (I), β-caryophyllene oxide and furfural: compound (I) 10 weight ppb; for strength of mouth-coating feel, two components compound (I) and furfural / strength of mouth-coating feel, three components compound (I), β-caryophyllene oxide and furfural: furfural 500 weight ppb; for strength of mouth-coating feel, two components compound (I) and β-caryophyllene oxide / strength of mouth-coating feel, three components compound (I), β-caryophyllene oxide and furfural: β-caryophyllene oxide 500 weight ppb; for strength of mouth-coating feel, no use of compound (I), single component: 500 weight ppb; as to strength of mouth-coating feel, three components compound (II), β-caryophyllene oxide, and cyclotene: tested at 0.01 µg/mL; as to strength of mouth-coating feel, two components compound (II) and cyclotene: tested at 0.01 µg/mL; as to strength of mouth-coating feel, two components compound (II) and β-caryophyllene oxide: tested at 0.01 µg/mL
Text: As a positive control, general commercially available mayonnaise (manufactured by Ajinomoto Co., Inc., trade name “Pure Select (registered trade mark) mayonnaise”, oil and fat content: 73%) was used. As a negative control (NC), commercially available mayonnaise (manufactured by Ajinomoto Co., Inc., trade name “Pure Select (registered trade mark) KOKUUMA (registered trade mark) 65% Calorie Cut”, oil and fat content: 23%) with a smaller oil and fat content as compared with positive control mayonnaise was used.
Experimental samples were produced by adding at least one compound selected from cyclotene, β-caryophyllene oxide, and furfural to the aforementioned commercially available mayonnaise (manufactured by Ajinomoto Co., Inc., trade name “Pure Select (registered trade mark) KOKUUMA (registered trade mark) 65% Calorie Cut”, oil and fat content: 23%) used as the negative control, such that the concentration of each compound in the food (mayonnaise) was a concentration shown in the following Tables 1 to 3 (in the following, each experimental sample is also to be referred to as “sample of experimental plot 1-1” to “sample of experimental plot 1-39”).
Cyclotene, octanoic acid, and isovaleric acid were added to the aforementioned commercially available mayonnaise (manufactured by Ajinomoto Co., Inc., trade name “Pure Select (registered trade mark) KOKUUMA (registered trade mark) 65% Calorie Cut”, oil and fat content: 23%) used as the negative control, such that the concentration of cyclotene in the food (mayonnaise) was 100 weight ppb, the concentration of octanoic acid was 200 weight ppb, and the concentration of isovaleric acid was 100 weight ppb to produce the sample of control plot 1.
A sensory evaluation was performed on the strength of mouth-coating feel of experimental samples, and the presence or absence of off-flavor.
For the evaluation of a mouth-coating feel, a panel of 4 experts ate each mayonnaise of positive control, negative control and experimental sample (samples of experimental plots 1-1 to 1-39 and control plot 1), and graded each experimental sample in 0.1 point increments (non-blind) in the range of 0.0 to 5.0 points, with the positive control being 5.0 points and the negative control being 0.0 point, by averaging the obtained scores of the panel of 4 experts. When the score was 1.0 or more, it was determined that there was an effect of enhancing the mouth-coating feel. The panel of 4 experts was trained in advance so that they have common understanding as to the degree of change in the mouth-coating feel that is required to change the score by 0.1 point.
Experimental samples were produced by adding at least one compound selected from compound (I) shown in the following Table 8 (any of cyclotene, γ-butyrolactone, 2-methyltetrahydrofuran-3-one, α-angelicalactone, maltol, 3-methyl-1,2-cyclohexanedione, γ-dodecanolactone, 5-dodecanolide, 4,5-dimethyl-3-hydroxy-2,5-dihydrofuran-2-one, and D-camphor), β-caryophyllene oxide, and furfural to the aforementioned commercially available mayonnaise (manufactured by Ajinomoto Co., Inc., trade name “Pure Select (registered trade mark) KOKUUMA (registered trade mark) 65% Calorie Cut”, oil and fat content: 23%) used as the negative control. Compound (I) was added such that the concentration of compound (I) in the food (mayonnaise) was 10 weight ppb, β-caryophyllene oxide was added such that the concentration of β-caryophyllene oxide in the food (mayonnaise) was 500 weight ppb, and furfural was added such that the concentration of furfural in the food (mayonnaise) was 500 weight ppb.
A sensory evaluation was performed on the strength of mouth-coating feel of experimental samples in the same manner as in Example 1.

panel of 4 experts [2] = assay: as above; type: in vivo; details: for strength of mouth-coating feel, single component compound (II) / strength of mouth-coating feel, two components compound (II) and cyclotene / strength of mouth-coating feel, two components compound (II) and β-caryophyllene oxide / strength of mouth-coating feel, three components compound (II), β-caryophyllene oxide, and cyclotene: compound (II) 10 weight ppb; for strength of mouth-coating feel, two components compound (II) and cyclotene / strength of mouth-coating feel, three components compound (II), β-caryophyllene oxide, and cyclotene: cyclotene 500 weight ppb; for strength of mouth-coating feel, two components compound (II) and β-caryophyllene oxide / strength of mouth-coating feel, three components compound (II), β-caryophyllene oxide, and cyclotene: β-caryophyllene oxide 500 weight ppb; for strength of mouth-coating feel, no use of compound (II), single component: 500 weight ppb as printed in b569

Row | SMILES | strength of mouth-coating feel, single component compound (I) (panel of 4 experts [1]) | strength of mouth-coating feel, two components compound (I) and furfural (panel of 4 experts [1]) | strength of mouth-coating feel, two components compound (I) and β-caryophyllene oxide (panel of 4 experts [1]) | strength of mouth-coating feel, three components compound (I), β-caryophyllene oxide and furfural (panel of 4 experts [1]) | strength of mouth-coating feel, single component compound (II) (panel of 4 experts [2]) | strength of mouth-coating feel, two components compound (II) and cyclotene (panel of 4 experts [2]) | strength of mouth-coating feel, two components compound (II) and β-caryophyllene oxide (panel of 4 experts [2]) | strength of mouth-coating feel, three components compound (II), β-caryophyllene oxide, and cyclotene (panel of 4 experts [2]) | strength of mouth-coating feel, no use of compound (II), single component (panel of 4 experts [2]) | strength of mouth-coating feel, no use of compound (I), single component (panel of 4 experts [1])
1 | CCCCCCCC1CCCC(=O)O1 (stereo not shown) [5-dodecanolide] | 0.5 | 2.4 | 3.2 | 4.2 |  |  |  |  |  | 
2 | Cc1ccc(C=O)o1 [5-methylfurfural] |  |  |  |  | 0.2 | 2.4 | 2.1 | 4.2 |  | 
3 | c1coc(Cn2cccc2)c1 [1-furfurylpyrrole] |  |  |  |  | 0.2 | 2.4 | 2.2 | 4.1 |  | 
4 | C=C1CC[C@H]2O[C@]2(C)CC[C@@H]2[C@@H]1CC2(C)C [β-caryophyllene oxide] |  |  |  |  |  |  |  |  | 1.5 | 1.5
5 | CC1(C)[C@@H]2CC[C@@]1(C)C(=O)C2 [D-camphor] | 0.4 | 2.6 | 3.1 | 4.2 |  |  |  |  |  | 
6 | CC1=C(O)C(=O)CC1 [cyclotene] | 0.5 | 2.5 | 3.2 | 4.7 |  |  |  |  | 0.5 | 
7 | CC(=O)c1ccco1 [2-acetylfuran] |  |  |  |  | 0.2 | 2.4 | 2.0 | 4.3 |  | 
8 | CC1=CCC(=O)O1 [α-angelicalactone] | 0.5 | 2.3 | 2.9 | 4.2 |  |  |  |  |  | 
9 | CC(=O)c1ccc(C)o1 [2-acetyl-5-methylfuran] |  |  |  |  | 0.2 | 2.2 | 2.2 | 4.4 |  | 
10 | CC1=C(O)C(=O)OC1C (stereo not shown) [4,5-dimethyl-3-hydroxy-2,5-dihydrofuran-2-one] | 0.3 | 2.3 | 2.9 | 4.2 |  |  |  |  |  | 
11 | Cc1occc(=O)c1O [maltol] | 0.4 | 2.3 | 3.0 | 4.2 |  |  |  |  |  | 
12 | O=Cc1ccco1 [furfural] |  |  |  |  | 0.3 | 2.2 | 2.2 | 4.7 |  | 0.3
13 | OCc1ccco1 [furfuryl alcohol] |  |  |  |  | 0.1 | 2.2 | 2.0 | 4.1 |  | 
14 | CC1OCCC1=O (stereo not shown) [2-methyltetrahydrofuran-3-one] | 0.5 | 2.4 | 3.2 | 4.2 |  |  |  |  |  | 
15 | O=C1CCCO1 [γ-butyrolactone] | 0.5 | 2.2 | 3.2 | 4.2 |  |  |  |  |  | 
16 | CC(=O)c1cc(C)oc1C [3-acetyl-2,5-dimethylfuran] |  |  |  |  | 0.2 | 2.5 | 2.0 | 4.2 |  | 
17 | CCC(=O)OCc1ccco1 [furfuryl propionate] |  |  |  |  | 0.2 | 2.4 | 2.2 | 4.3 |  | 
18 | O=Cc1ccc(CO)o1 [5-(hydroxymethyl)furfural] |  |  |  |  | 0.2 | 2.5 | 2.2 | 4.3 |  | 
19 | CC1CCCC(=O)C1=O (stereo not shown) [3-methyl-1,2-cyclohexanedione] | 0.5 | 2.3 | 3.0 | 4.4 |  |  |  |  |  | 
